# Laboratory results reported in ChEMBL document CHEMBL4507287, “Data for DCP probe MRL-650” (2021).
# Activity calls are given as the source filed them. The calls are words filed in the database; no cut-off is given here.
# Assays:
# [1] = biological target: 5-hydroxytryptamine receptor 2C (Homo sapiens, UniProt P28335); assay: GPCRScan assay: inhibition of 5-HT2C; parameters: radioligand conc. used [nm] 1.0 – 2.5, parental cells HEK T
# [2] = biological target: Delta-type opioid receptor (Homo sapiens, UniProt P41143); assay: GPCRScan assay: inhibition of DOR; parameters: radioligand conc. used [nm] 1.0 – 2.0, parental cells stable HEK
# [3] = biological target: Mitotic checkpoint serine/threonine-protein kinase BUB1 (Homo sapiens) (UniProt O43683); conditions: Compound concentration 1000.0 nM
# [4] = biological target: Serine/threonine-protein kinase LATS1 (Homo sapiens) (UniProt O95835); conditions: Compound concentration 1000.0 nM
# [5] = biological target: Alpha-2C adrenergic receptor (Homo sapiens, UniProt P18825); assay: GPCRScan assay: inhibition of Alpha2C; parameters: radioligand conc. used [nm] 0.5 – 1.0, parental cells stable MDCK
# [6] = biological target: Serine/threonine-protein kinase 33 (Homo sapiens) (UniProt Q9BYT3); conditions: Compound concentration 1000.0 nM
# Serine/threonine-protein kinase 33 (Homo sapiens), sequence (Q9BYT3 whole entry, looked up): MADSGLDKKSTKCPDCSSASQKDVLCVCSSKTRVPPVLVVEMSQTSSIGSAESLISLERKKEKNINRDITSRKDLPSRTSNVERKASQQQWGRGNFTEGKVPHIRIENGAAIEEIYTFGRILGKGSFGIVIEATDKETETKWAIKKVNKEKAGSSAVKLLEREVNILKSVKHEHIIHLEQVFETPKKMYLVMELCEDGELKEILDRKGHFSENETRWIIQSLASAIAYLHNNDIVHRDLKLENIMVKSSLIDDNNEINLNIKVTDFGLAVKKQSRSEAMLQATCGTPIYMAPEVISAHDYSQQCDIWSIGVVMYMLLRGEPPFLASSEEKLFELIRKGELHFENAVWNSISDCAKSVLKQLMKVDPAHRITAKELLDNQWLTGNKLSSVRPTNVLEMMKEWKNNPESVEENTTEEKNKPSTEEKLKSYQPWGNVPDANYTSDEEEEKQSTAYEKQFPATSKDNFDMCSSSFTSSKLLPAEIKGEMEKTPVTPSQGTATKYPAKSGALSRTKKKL
# [7] = biological target: Cyclin-dependent kinase 16 (Homo sapiens) (UniProt Q00536); conditions: Compound concentration 1000.0 nM
# [8] = biological target: GABA-A receptor; anion channel (Rattus norvegicus) (UniProt O09028+P15431+P18506+P18508+P19969+P20236+P23574+P23576+P28471+P28473+P30191+P62813+P63079+P63138+Q91ZM7+Q9ES14); conditions: Compound concentration 10.0 uM
# [9] = biological target: Serine/threonine-protein kinase RIO3 (Homo sapiens) (UniProt O14730); conditions: Compound concentration 1000.0 nM
# Serine/threonine-protein kinase RIO3 (Homo sapiens), sequence (O14730 whole entry): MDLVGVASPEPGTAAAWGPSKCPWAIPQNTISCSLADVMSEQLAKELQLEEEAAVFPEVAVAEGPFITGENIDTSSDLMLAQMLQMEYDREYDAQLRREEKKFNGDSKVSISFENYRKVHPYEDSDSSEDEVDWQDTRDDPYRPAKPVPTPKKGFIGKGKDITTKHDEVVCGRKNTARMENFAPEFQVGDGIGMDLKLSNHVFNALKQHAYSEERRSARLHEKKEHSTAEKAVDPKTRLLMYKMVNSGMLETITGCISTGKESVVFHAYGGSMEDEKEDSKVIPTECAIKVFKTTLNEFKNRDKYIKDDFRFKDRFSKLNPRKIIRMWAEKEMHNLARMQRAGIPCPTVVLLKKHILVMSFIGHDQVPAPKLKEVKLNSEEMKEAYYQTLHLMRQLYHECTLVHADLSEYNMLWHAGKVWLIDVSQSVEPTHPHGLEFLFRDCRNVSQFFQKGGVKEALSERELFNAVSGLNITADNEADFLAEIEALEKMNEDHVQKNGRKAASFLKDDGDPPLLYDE
# [10] = biological target: 5-hydroxytryptamine receptor 1E (Homo sapiens) (UniProt P28566); conditions: Compound concentration 10.0 uM
# [11] = biological target: T1, Cannabinoid receptor 1 (Homo sapiens, UniProt P21554); assay: Radioligand Binding Assay (CNR1)
# T1 sequence (P21554 whole entry): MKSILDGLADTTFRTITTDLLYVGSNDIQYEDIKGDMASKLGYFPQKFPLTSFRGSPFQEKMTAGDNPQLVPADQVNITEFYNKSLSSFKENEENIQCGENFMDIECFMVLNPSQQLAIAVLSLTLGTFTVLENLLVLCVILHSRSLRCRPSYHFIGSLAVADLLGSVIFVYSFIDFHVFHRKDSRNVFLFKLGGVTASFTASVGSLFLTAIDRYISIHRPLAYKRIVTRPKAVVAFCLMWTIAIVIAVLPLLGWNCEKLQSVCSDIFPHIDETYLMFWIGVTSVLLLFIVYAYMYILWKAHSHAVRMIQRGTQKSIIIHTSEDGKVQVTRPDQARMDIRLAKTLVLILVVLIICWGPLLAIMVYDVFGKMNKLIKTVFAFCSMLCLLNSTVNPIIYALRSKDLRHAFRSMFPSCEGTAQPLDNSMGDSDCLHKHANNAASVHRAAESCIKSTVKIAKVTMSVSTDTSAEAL
# [12] = biological target: Alpha-2B adrenergic receptor (Homo sapiens, UniProt P18089); assay: GPCRScan assay: inhibition of Alpha2B; parameters: radioligand conc. used [nm] 1.5 – 2.0, parental cells HEKT
# [13] = biological target: Beta-1 adrenergic receptor (Homo sapiens) (UniProt P08588); conditions: Compound concentration 10.0 uM
# [14] = biological target: Transient receptor potential cation channel subfamily M member 6 (Homo sapiens) (UniProt Q9BX84); conditions: Compound concentration 1000.0 nM
# [15] = biological target: Microtubule-associated serine/threonine-protein kinase 1 (Homo sapiens) (UniProt Q9Y2H9); conditions: Compound concentration 1000.0 nM
# Microtubule-associated serine/threonine-protein kinase 1 (Homo sapiens), sequence (Q9Y2H9 whole entry, looked up): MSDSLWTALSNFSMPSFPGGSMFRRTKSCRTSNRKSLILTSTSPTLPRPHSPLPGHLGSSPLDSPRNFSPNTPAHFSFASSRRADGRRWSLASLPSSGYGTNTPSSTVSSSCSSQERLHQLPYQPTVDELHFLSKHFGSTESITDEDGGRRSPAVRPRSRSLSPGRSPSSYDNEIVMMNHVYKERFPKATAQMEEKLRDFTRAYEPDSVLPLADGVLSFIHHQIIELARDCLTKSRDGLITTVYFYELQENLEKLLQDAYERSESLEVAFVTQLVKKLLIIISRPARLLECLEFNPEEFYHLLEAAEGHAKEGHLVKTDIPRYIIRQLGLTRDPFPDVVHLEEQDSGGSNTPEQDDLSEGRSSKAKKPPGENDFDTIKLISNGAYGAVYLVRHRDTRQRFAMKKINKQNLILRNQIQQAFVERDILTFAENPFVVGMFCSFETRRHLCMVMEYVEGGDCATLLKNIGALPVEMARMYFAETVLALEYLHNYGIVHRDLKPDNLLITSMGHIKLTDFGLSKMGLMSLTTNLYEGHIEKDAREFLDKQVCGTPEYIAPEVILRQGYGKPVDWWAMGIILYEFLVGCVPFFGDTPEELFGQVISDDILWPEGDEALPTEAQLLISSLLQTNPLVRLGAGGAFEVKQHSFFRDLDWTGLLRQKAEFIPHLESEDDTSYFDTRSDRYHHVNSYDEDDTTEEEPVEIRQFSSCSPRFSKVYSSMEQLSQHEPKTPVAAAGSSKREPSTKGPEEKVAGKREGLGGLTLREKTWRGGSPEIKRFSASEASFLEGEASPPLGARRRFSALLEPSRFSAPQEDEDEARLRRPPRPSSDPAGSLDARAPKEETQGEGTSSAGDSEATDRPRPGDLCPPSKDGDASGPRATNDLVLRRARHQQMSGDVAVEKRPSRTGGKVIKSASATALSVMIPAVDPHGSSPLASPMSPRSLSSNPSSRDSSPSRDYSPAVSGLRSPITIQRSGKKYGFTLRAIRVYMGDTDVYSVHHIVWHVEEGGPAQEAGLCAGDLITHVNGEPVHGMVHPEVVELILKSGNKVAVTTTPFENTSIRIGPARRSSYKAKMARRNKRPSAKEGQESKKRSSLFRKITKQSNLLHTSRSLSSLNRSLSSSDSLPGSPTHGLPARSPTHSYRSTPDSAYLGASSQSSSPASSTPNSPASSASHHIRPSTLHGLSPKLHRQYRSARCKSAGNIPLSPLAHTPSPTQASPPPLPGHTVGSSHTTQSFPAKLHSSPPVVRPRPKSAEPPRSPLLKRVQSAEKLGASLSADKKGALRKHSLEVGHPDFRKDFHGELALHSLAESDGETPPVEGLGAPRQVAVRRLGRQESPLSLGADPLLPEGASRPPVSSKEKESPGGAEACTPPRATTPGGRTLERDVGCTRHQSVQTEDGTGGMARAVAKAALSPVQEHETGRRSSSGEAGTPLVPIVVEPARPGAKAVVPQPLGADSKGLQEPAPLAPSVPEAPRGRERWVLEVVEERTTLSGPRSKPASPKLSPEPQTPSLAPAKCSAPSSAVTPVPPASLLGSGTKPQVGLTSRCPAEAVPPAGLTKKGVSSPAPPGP
# [16] = biological target: Serine/threonine-protein kinase 24 (Homo sapiens) (UniProt Q9Y6E0); conditions: Compound concentration 1000.0 nM
# Serine/threonine-protein kinase 24 (Homo sapiens), sequence (Q9Y6E0 whole entry, looked up): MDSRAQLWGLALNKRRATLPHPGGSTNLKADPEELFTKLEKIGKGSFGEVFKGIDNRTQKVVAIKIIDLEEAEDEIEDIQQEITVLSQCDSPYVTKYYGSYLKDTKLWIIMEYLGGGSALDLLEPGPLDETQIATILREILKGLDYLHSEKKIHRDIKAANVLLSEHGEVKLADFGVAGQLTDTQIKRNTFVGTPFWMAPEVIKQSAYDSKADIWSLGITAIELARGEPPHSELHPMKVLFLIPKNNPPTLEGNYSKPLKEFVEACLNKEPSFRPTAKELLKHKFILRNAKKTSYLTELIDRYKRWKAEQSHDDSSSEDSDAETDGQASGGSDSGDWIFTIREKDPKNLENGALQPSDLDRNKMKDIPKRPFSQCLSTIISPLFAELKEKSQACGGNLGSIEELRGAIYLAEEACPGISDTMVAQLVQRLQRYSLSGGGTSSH
# [17] = biological target: BMP-2-inducible protein kinase (Homo sapiens) (UniProt Q9NSY1); conditions: Compound concentration 1000.0 nM
# [18] = biological target: 5-hydroxytryptamine receptor 1A (Homo sapiens) (UniProt P08908); conditions: Compound concentration 10.0 uM
# [19] = biological target: Serine/threonine-protein kinase ULK1 (Homo sapiens) (UniProt O75385); conditions: Compound concentration 1000.0 nM
# Serine/threonine-protein kinase ULK1 (Homo sapiens), sequence (O75385 whole entry): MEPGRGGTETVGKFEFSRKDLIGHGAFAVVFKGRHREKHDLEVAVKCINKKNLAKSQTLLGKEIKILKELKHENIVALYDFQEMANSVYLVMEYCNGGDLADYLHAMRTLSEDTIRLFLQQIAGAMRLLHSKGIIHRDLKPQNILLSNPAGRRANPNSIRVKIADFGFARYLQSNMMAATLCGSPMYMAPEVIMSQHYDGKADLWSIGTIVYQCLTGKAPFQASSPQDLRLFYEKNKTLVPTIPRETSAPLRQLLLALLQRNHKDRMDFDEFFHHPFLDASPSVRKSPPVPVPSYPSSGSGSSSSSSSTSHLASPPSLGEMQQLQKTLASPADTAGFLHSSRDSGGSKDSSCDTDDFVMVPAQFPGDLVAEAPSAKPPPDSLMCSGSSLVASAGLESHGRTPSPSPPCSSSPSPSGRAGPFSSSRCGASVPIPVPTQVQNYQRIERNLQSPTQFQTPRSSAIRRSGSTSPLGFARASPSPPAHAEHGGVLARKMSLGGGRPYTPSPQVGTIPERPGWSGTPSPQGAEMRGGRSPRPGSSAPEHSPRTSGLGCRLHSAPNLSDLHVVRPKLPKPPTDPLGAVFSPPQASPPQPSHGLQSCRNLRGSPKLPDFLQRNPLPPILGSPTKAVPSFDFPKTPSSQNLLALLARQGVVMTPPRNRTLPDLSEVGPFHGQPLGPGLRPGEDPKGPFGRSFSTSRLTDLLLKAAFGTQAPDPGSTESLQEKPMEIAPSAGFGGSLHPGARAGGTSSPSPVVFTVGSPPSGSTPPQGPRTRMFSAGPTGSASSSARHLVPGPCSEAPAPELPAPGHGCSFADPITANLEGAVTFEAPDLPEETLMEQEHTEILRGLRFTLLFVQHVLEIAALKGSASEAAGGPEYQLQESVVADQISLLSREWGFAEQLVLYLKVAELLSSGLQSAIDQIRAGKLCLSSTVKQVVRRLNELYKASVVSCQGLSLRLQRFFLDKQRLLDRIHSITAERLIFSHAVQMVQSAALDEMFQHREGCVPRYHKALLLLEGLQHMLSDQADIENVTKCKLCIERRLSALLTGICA
# [20] = biological target: 5-hydroxytryptamine receptor 2A (Homo sapiens, UniProt P28223); assay: GPCRScan assay: inhibition of 5-HT2A; parameters: radioligand conc. used [nm] 1.2 – 2.4, parental cells HEKT
# [21] = biological target: Uncharacterized serine/threonine-protein kinase SBK3 (Homo sapiens) (UniProt P0C264); conditions: Compound concentration 1000.0 nM
# [22] = biological target: Sodium-dependent dopamine transporter (Homo sapiens, UniProt Q01959); assay: GPCRScan assay: inhibition of DAT; parameters: radioligand conc. used [nm] 3.6 – 16.0, parental cells stable HEK
# [23] = biological target: Serine/threonine-protein kinase PLK4 (Homo sapiens) (UniProt O00444); conditions: Compound concentration 1000.0 nM
# [24] = biological target: Bone morphogenetic protein receptor type-1B (Homo sapiens) (UniProt O00238); conditions: Compound concentration 1000.0 nM
# Bone morphogenetic protein receptor type-1B (Homo sapiens), sequence (O00238 whole entry): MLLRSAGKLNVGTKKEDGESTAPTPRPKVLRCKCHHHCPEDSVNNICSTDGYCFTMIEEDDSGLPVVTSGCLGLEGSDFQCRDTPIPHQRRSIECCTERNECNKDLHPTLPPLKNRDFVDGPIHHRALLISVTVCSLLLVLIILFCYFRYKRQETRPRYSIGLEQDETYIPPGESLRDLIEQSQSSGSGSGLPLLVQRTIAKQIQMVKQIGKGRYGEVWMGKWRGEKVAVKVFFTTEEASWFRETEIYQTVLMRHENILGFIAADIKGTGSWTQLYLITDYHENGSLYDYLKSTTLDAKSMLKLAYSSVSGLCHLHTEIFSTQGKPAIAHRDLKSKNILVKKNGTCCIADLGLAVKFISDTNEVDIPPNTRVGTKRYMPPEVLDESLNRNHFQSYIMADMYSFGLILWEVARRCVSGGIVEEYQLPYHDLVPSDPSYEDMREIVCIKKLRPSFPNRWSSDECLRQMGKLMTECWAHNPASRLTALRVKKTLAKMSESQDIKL
# [25] = biological target: GABA-A receptor; anion channel; assay: GPCRScan assay: inhibition of GABAA/BZP; type: protein-complex assay, Rattus norvegicus; parameters: radioligand conc. used [nm] 0.6 – 4.0, parental cells brain tissue
# [26] = biological target: Beta-3 adrenergic receptor (Homo sapiens, UniProt P13945); assay: GPCRScan assay: inhibition of Beta3; parameters: radioligand conc. used [nm] 0.2 – 0.5, parental cells HEK Flp-In
# [27] = biological target: Histamine H4 receptor (Homo sapiens) (UniProt Q9H3N8); conditions: Compound concentration 10.0 uM
# [28] = biological target: Sodium-dependent serotonin transporter (Homo sapiens) (UniProt P31645); conditions: Compound concentration 10.0 uM
# [29] = biological target: Sigma intracellular receptor 2 (Homo sapiens, UniProt Q5BJF2); assay: GPCRScan assay: inhibition of Sigma 2; parameters: radioligand conc. used [nm] 5.0, parental cells HEKT
# [30] = biological target: Sigma non-opioid intracellular receptor 1 (Homo sapiens, UniProt Q99720); assay: GPCRScan assay: inhibition of Sigma 1; parameters: radioligand conc. used [nm] 4.0 – 5.0, parental cells HEKT
# [31] = biological target: T1, Cannabinoid receptor 1; assay: Functional activation assay
# [32] = biological target: 5-hydroxytryptamine receptor 6 (Homo sapiens) (UniProt P50406); conditions: Compound concentration 10.0 uM
# [33] = biological target: 5-hydroxytryptamine receptor 7 (Homo sapiens) (UniProt P34969); conditions: Compound concentration 10.0 uM
# [34] = GPCRScan assay: inhibition of GABA/PBR; parameters: species or system Rattus norvegicus; radioligand conc. used [nm] 0.3 – 2.0, parental cells brain tissue
smiles,measurement,setting,value
CC(=O)c1c(NS(C)(=O)=O)c2cc(-c3ccc(Cl)cc3)c(-c3ccc(Cl)cc3Cl)nc2n(C)c1=O [MRL-CB1-NC],Ki,[1],22 nM
same,Ki,[2],1410 nM
same,residual activity,[3],76%
same,residual activity,[4],81%
same,Ki,[5],10000 nM
same,residual activity,[6],100%
same,residual activity,[7],76%
same,inhibition,[8],0.954%
same,residual activity,[9],96%
same,inhibition,[10],29.2%
same,Inverse agonism,[11],32.5%
same,Ki,[12],1690 nM
same,inhibition,[13],25.6%
same,residual activity,[14],100%
same,residual activity,[15],100%
same,residual activity,[16],97%
same,residual activity,[17],100%
same,inhibition,[18],28.7%
same,residual activity,[19],67%
same,Ki,[20],1810 nM
same,residual activity,[21],95%
same,Ki,[22]; read-out: Ki,766 nM
same,Ki,[22]; read-out: pKi (converted),794 nM
same,residual activity,[23],100%
same,residual activity,[24],100%
same,Ki,[25],1660 nM
same,Ki,[26],1130 nM
CC(=O)Nc1c(C(C)=O)c(=O)n(C)c2nc(-c3ccc(Cl)cc3Cl)c(-c3ccc(Cl)cc3)cc12 [NAPHTHYRIDINONE],inhibition,[27],13.9%
same,residual activity,[3],92%
same,inhibition,[28],-9.53%
same,residual activity,[4],98%
same,residual activity,[6],100%
same,residual activity,[7],100%
same,residual activity,[9],100%
same,Ki,[29],605 nM
same,residual activity,[14],100%
same,residual activity,[15],100%
same,Ki,[30],1160 nM
same,residual activity,[16],100%
same,residual activity,[17],100%
same,residual activity,[19],66%
same,EC50,[31],4.9 nM (active)
same,residual activity,[21],100%
same,inhibition,[32],-3.97%
same,inhibition,[33],0.657%
same,Ki,[34],82 nM
same,pKi,[34],7.09
same,residual activity,[23],100%
same,residual activity,[24],100%
